Columns and labels:
PARG (389-976) = PARG (389-976) (Homo sapiens (Human), UniProt Q86W56); test: PARG enzyme inhibition assay (TR-FRET); format: biochemical
Protocol: PARG in vitro assays were conducted in standard 384-well plates in a total volume of 15 μL. 5 μL of PARG (389-976) (manufactured by Chempartner Chemical Co., Ltd.) in buffer (50 mM Tris-HCL 7.5, 30 mM KCl, 1 mM EDTA, 3 mM DTT, tween-20 0.01%, BSA 0.025%) was added at a final concentration of 1.5 pM to the 384-well plates containing the compounds to be tested, which was incubated for 30 min at room temperature. To the above mixture was added 5 μL Bio PARylated His-TEV-PARP1(2-1014) substrate (manufactured by Chempartner Chemical Co., Ltd.) at a final concentration of 12 nM, after addition, the resulting mixture was incubated for 30 minutes at room temperature. Then to the mixture was added detection reagent (5 μL) which was buffered with 50 mM Tris-HCL 7.5, 30 mM KCl, 1 mM EDTA, 3 mM DTT, tween-20 0.01%, BSA 0.025%, and consisted of 3 μM of compound PDD00017273 and 9 nM Mab anti-6HIS XL665 (Cisbio: 61HISXLA) and 0.9 nM streptavidin affinity terbium cryptate (Cisbio:610SATLA), all at 3× working concentrations (final concentrations of 1 μM, 3 nM and 0.3 nM, respectively). After 120 min incubation in the dark at room temperature, TR-FRET signals were measured at Ex 340 and Em 665 and Em 615. The ratio for each well was calculated as Em 665/Em 615 and the compound inhibition rate was calculated based on the obtained data.

HCC1428 = test: CTG assay for proliferation inhibition of cell lines; format: cell-based; conditions: HCC1428, 7 days, CellTiter Glo
Protocol: (§1) The assay was conducted on either 384-well plates or 96-well plates. The procedures are as follows:
(§2) The cell suspensions were added to 384- or 96-well plates (384-well plate: 50 μL; 96-well plate: 100 μL) except for peripheral wells. The plates were incubated in a carbon dioxide incubator overnight, HCC1395, HCC1428 and NCI-H460 were placed in a carbon dioxide incubator of 5%, […] overnight. Prepared compounds (10 concentration gradients by serial 3-fold dilution) were added to the wells using the HPD300 micro-dosing instrument. The cell plates were incubated in a carbon dioxide incubator for 7 days. HCC1395, HCC1428 and NCI-H460 were incubated in a 5%, 37° CO2 incubator. On the day of plate measurement, 384- or 96-well plates were first equilibrated at room temperature for 10-30 minutes, then to the 384- or 96-well plate was added CellTiter Glo reagent (384-well plate: 25 μL; 96-well plate: 100 μL), shaken for 10 minutes away from light, and incubated for 10 minutes. The incubated plates were placed into Victor NIVO reader plates, and the pharmacodynamic inhibition curves were plotted and IC50 values were calculated using XLFit.

HCC1395 = test: as above; format: cell-based; conditions: HCC1395, 7 days, CellTiter Glo
Protocol: as §1, §2

[1] = class symbol, Bio PARylated His-TEV-PARP1 substrate, TR-FRET
[2] = numeric value in parentheses under the class symbol

Sequence of PARG (389-976) (Q86W56 389-976): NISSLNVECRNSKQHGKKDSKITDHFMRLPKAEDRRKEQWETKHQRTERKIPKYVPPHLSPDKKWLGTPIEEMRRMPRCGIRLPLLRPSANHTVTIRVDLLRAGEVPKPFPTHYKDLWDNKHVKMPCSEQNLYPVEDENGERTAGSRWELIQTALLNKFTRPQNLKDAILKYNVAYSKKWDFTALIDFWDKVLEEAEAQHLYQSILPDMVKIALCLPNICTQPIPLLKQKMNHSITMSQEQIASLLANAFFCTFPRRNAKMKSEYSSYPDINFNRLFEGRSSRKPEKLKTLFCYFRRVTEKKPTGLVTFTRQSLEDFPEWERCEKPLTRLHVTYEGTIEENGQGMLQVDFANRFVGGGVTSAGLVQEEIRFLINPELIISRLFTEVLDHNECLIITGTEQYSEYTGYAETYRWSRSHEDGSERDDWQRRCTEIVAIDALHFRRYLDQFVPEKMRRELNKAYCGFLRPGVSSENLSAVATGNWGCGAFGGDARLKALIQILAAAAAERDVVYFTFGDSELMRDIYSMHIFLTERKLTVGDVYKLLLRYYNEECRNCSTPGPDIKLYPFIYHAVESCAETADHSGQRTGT

Compound	IC50 (PARG (389-976); [1]) [µM]	IC50 (PARG (389-976); [2]) [µM]	IC50 (HCC1428) [µM]	IC50 (HCC1395) [µM]
COCCn1nc(-c2nnc(C(F)F)s2)c2cc(S(=O)(=O)NC3(C#N)CC3)cc(C3=CCN(S(=O)(=O)C(C)C)CC3)c21 [Compound 1]	< 0.001	0.0002		
COCCn1nc(-c2nnc(C(F)F)s2)c2cc(S(=O)(=O)NC3(C#N)CC3)cc(N3CCN(S(=O)(=O)C(C)C)CC3)c21 [Compound 2]	< 0.001	0.00027	0.413	
CN(C)S(=O)(=O)N1CCN(c2cc(S(=O)(=O)NC3(C#N)CC3)cc3c(-c4nnc(C(F)F)s4)nn(C)c23)CC1 [Compound 3]	0.001 to 0.01	0.00164		0.386
CC(C)S(=O)(=O)N1CCC=C(c2cc(S(=O)(=O)NC3(C#N)CC3)cc3c(-c4nnc(C(F)F)s4)nn(C)c23)C1 [Compound 4]	0.001 to 0.01			
CC(C)S(=O)(=O)N1CC=C(c2cc(S(=O)(=O)NC3(C#N)CC3)cc3c(-c4nnc(C(F)F)o4)nn(C)c23)CC1 [Compound 6]	< 0.001			0.442
CC(C)S(=O)(=O)N1CCN(c2cc(S(=O)(=O)NC3(C#N)CC3)cc3c2cnn3-c2nnc(C(F)F)s2)CC1 [Compound 8]	0.001 to 0.01			
CC(C)S(=O)(=O)N1CC=C(c2cc(S(=O)(=O)NC3(C#N)CC3)cc3c(-c4nnc(C(F)F)s4)csc23)CC1 [Compound 10]	0.001 to 0.01			
Cn1nc(-c2nnc(C(F)F)s2)c2cc(S(=O)(=O)NC3(C#N)CC3)cc(C3=CCN(S(=O)(=O)C4CC4)CC3)c21 [Compound 11]	< 0.001			
CC(C)CS(=O)(=O)N1CC=C(c2cc(S(=O)(=O)NC3(C#N)CC3)cc3c(-c4nnc(C(F)F)s4)nn(C)c23)CC1 [Compound 13]	0.001 to 0.01			
CC(C)S(=O)(=O)N1CC=C(c2cc(S(=O)(=O)NC3(C(N)=O)CC3)cc3c(-c4nnc(C(F)F)s4)nn(C)c23)CC1 [Compound 17]	0.001 to 0.01			
CC(C)S(=O)(=O)N1CCC(O)(c2cc(S(=O)(=O)NC3(C#N)CC3)cc3c(-c4nnc(C(F)F)s4)n[nH]c23)CC1 [Compound 27]	0.001 to 0.01			
CC(C)S(=O)(=O)N1CCC(O)(c2cc(S(=O)(=O)NC3(C#N)CC3)cc3c(-c4nnc(C(F)F)s4)nn(C)c23)CC1 [Compound 28]	0.001 to 0.01			
CC(C)SC1CC=C(c2cc(S(=O)(=O)NC3(C#N)CC3)cc3c(-c4nnc(C(F)F)s4)nn(C)c23)CC1 (centres unmarked) [Compound 29]	0.01 to 0.1			
CC(C)S(=O)(=O)N1CCC(c2cc(S(=O)(=O)NC3(C#N)CC3)cc3c(-c4nnc(C(F)F)s4)nn(C)c23)=C(C(=O)O)C1 [Compound 34]	0.01 to 0.1			
CC(C)Sc1ncc(-c2cc(S(=O)(=O)NC3(C#N)CC3)cc3c(-c4nnc(C(F)F)s4)nn(C)c23)cn1 [Compound 41]	0.1 to 1			
CC(C)[S+]([O-])c1ncc(-c2cc(S(=O)(=O)NC3(C#N)CC3)cc3c(-c4nnc(C(F)F)s4)nn(C)c23)cn1 (centres unmarked) [Compound 42]	0.001 to 0.01			
CC(C)S(=O)(=O)c1ncc(-c2cc(S(=O)(=O)NC3(C#N)CC3)cc3c(-c4nnc(C(F)F)s4)nn(C)c23)cn1 [Compound 43]	0.1 to 1			
CC(C)[S+]([O-])c1ccc(-c2cc(S(=O)(=O)NC3(C#N)CC3)cc3c(-c4nnc(C(F)(F)F)s4)nn(C)c23)cn1 (centres unmarked) [Compound 46]	< 0.001		1.7	
CC(C)S(=O)(=O)c1ccc(-c2cc(S(=O)(=O)NC3(C#N)CC3)cc3c(-c4nnc(C(F)(F)F)s4)nn(C)c23)cn1 [Compound 47]	0.001 to 0.01		1.91	
CC(C)S(=O)(=O)c1ccc(-c2cc(S(=O)(=O)NC3(C#N)CC3)cc3c(-c4nnc(C(F)(F)F)s4)nn(C)c23)nc1 [Compound 49]	0.1 to 1			

Compound	IC50 (PARG (389-976); [1]) [µM]	IC50 (PARG (389-976); [2]) [µM]	IC50 (HCC1428) [µM]	IC50 (HCC1395) [µM]
Cn1nc(-c2nnc(C(F)(F)F)s2)c2cc(S(=O)(=O)NC3(C#N)CC3)cc(C3=CCN(S(=O)(=O)c4ccccc4)CC3)c21 [Compound 50]	0.01 to 0.1		2.33	
Cn1nc(-c2nnc(C(F)(F)F)s2)c2cc(S(=O)(=O)NC3(C#N)CC3)cc(C3=CCN(S(=O)(=O)c4cccnc4)CC3)c21 [Compound 51]	0.001 to 0.01		2.52	
CC(C)S(=O)(=O)N1Cc2cn(-c3cc(S(=O)(=O)NC4(C#N)CC4)cc4c(-c5nnc(C(F)F)s5)nn(C)c34)nc2C1 [Compound 52]	0.001 to 0.01		1.06	1.38
CC(C)S(=O)(=O)N1CC=C(c2cc(S(=O)(=O)NC3(C#N)CC3)cc3c(-c4noc(C(F)(F)F)n4)nn(C)c23)CC1 [Compound 53]	< 0.001		0.207	0.392
CC(C)S(=O)(=O)N1CCC(c2cc(S(=O)(=O)NC3(C#N)CC3)cc3c(-c4nnc(C(F)(F)F)s4)nn(C)c23)=C(C(=O)O)C1 [Compound 54]	0.01 to 0.1			
CC(C)S(=O)(=O)N1CCC(c2cc(S(=O)(=O)NC3(C#N)CC3)cc3c(-c4nnc(C(F)(F)F)s4)nn(C)c23)=C(C(N)=O)C1 [Compound 55]	< 0.001		0.208	0.836
CC(C)S(=O)(=O)N1CCN(c2c(F)c(S(=O)(=O)NC3(C#N)CC3)cc3c(-c4nnc(C(F)(F)F)s4)nn(C)c23)CC1 [Compound 56]	< 0.001		0.0472	0.0475
CC(C)S(=O)(=O)N1CC=C(c2cc(S(=O)(=O)NC3(C(N)=O)CC3)cc3c(-c4nnc(C(F)(F)F)s4)nn(C)c23)CC1 [Compound 57]	0.01 to 0.1			
CC(C)S(=O)(=O)N1CC=C(c2cc(S(=O)(=O)NC3(C#N)CC3)cc3c(-c4nnc(C(F)(F)F)s4)nn(Cc4ccccc4)c23)CC1 [Compound 62]	0.01 to 0.1			
CC(C)S(=O)(=O)c1ccc(-c2cc(S(=O)(=O)NC3(C#N)CC3)cc3c(-c4nnc(C(F)F)s4)nn(C)c23)nc1 [Compound 63]	0.1 to 1			
CC(C)S(=O)(=O)N1CCC(c2cc(S(=O)(=O)NC3(C#N)CC3)cc3c(-c4nnc(C(F)(F)F)s4)nn(C)c23)=C(C#N)C1 [Compound 64]	< 0.001		0.0882	
CC(C)S(=O)(=O)N1CC=C(c2cc(S(=O)(=O)NC3(C#N)CC3)cc3c2ccn3-c2nnc(C(F)(F)F)s2)CC1 [Compound 65]	0.001 to 0.01			
CC(C)S(=O)(=O)N1CC=C(c2cc(S(=O)(=O)NC3(C#N)CC3)cc3c(-c4nnc(C(F)F)s4)nn(CC(N)=O)c23)CC1 [Compound 66]	0.001 to 0.01			
CC(C)S(=O)(=O)N1CC=C(c2cc(S(=O)(=O)NC3(C#N)CC3)cc3c(-c4nnc(C(F)F)s4)nn(C)c23)C(F)(F)C1 [Compound 67]	< 0.001		0.203	
CC(C)S(=O)(=O)N1CCC(c2cc(S(=O)(=O)NC3(C#N)CC3)cc3c(-c4nnc(C(F)F)s4)nn(C)c23)=C(F)C1 [Compound 68]	< 0.001		0.47	
CC1=C(c2cc(S(=O)(=O)NC3(C#N)CC3)cc3c(-c4nnc(C(F)(F)F)s4)nn(C)c23)CCN(S(=O)(=O)C(C)C)C1 [Compound 75]	< 0.001			0.0352
CC(C)S(=O)(=O)N1CC=C(c2cc(S(=O)(=O)NC3(C#N)CC3)cc3c2nnn3-c2nnc(C(F)(F)F)s2)CC1 [Compound 80]	0.01 to 0.1			
CC(C)S(=O)(=O)N1CC=C(c2cc(S(=O)(=O)NC3(C#N)CC3)cc3c(-c4cc(C(F)(F)F)nn4C)nn(C)c23)CC1 [Compound 81]	0.1 to 1			
CC(C)S(=O)(=O)N1CCN(c2cc(S(=O)(=O)NC3(C#N)CC3)cc3c(-c4nnc(C(F)(F)F)s4)nn(C)c23)C=N1 [Compound 85]	< 0.001			
Cc1cc(Cn2c(=O)n(Cc3cnc(C)s3)c(=O)c3cc(S(=O)(=O)NC4(C)CC4)ccc32)n(C)n1 [PDD 00017273, reference compound]	0.001 to 0.01			
